From ChEMBL document CHEMBL3132769, “Fragment growing to retain or alter the selectivity of anchored kinase hinge-binding fragments” (Medchemcomm, 2014)

Experiments:
[1] = target: T1, Serine/threonine-protein kinase D1 (Homo sapiens) (UniProt Q15139); test: Inhibition of human full length PKD1 expressed in baculovirus assessed as substrate phosphorylation using fluorescence-labelled peptides as substrate at 0.2 uM after 90 mins by microfluidic peptide phosphorylation assay
T1 sequence (whole entry): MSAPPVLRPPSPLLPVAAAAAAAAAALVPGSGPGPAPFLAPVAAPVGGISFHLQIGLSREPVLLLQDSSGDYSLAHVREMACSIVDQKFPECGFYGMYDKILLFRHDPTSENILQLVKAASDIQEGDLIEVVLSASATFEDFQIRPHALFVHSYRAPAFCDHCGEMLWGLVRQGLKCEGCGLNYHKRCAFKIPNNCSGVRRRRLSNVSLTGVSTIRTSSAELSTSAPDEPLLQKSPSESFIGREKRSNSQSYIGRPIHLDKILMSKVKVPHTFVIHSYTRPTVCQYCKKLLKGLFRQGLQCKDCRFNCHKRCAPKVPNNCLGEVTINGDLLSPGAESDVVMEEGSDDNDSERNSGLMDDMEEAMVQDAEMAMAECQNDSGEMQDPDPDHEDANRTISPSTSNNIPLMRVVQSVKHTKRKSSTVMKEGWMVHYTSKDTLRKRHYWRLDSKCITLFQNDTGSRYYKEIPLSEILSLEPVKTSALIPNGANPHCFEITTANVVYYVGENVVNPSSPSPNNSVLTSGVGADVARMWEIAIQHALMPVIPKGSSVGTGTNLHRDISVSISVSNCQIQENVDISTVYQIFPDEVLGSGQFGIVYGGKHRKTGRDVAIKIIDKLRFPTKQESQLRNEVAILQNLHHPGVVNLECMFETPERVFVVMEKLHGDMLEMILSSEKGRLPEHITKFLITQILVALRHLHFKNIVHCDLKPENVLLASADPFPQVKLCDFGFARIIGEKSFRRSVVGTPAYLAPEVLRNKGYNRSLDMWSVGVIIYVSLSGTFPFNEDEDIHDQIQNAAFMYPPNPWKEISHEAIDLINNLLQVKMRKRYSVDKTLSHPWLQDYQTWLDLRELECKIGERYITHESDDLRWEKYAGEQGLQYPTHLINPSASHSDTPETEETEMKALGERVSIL

[2] = target: Ribosomal protein S6 kinase alpha-2 (Homo sapiens) (UniProt Q15349); test: Inhibition of human full length RSK3 expressed in baculovirus assessed as substrate phosphorylation using fluorescence-labelled peptides as substrate at 95 uM after 90 mins by microfluidic peptide phosphorylation assay
Chain of Ribosomal protein S6 kinase alpha-2 (Homo sapiens) (Q15349 whole entry): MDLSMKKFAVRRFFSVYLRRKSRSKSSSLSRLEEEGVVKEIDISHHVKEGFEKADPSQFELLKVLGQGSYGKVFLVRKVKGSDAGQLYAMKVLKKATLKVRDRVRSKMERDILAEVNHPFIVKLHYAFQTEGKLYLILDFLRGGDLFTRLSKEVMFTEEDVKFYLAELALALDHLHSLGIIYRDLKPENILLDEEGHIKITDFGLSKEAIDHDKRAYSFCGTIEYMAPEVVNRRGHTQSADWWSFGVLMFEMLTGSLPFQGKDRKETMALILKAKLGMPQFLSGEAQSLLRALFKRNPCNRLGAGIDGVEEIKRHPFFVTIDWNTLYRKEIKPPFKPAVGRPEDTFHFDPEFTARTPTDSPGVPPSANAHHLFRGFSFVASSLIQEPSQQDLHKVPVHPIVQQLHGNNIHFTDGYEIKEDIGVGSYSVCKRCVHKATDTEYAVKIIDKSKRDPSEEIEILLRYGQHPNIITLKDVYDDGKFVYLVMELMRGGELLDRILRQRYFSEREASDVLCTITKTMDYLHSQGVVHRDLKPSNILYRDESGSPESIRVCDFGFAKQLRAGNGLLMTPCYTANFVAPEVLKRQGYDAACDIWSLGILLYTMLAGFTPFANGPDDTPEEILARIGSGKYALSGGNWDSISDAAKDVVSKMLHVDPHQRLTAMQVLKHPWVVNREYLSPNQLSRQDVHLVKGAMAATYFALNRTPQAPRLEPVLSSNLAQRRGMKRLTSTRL

[3] = target: MAP kinase p38 (Homo sapiens) (UniProt O15264+Q15759+Q16539+P53778); test: Inhibition of human full length p38 beta2 expressed in Escherichia coli cell assessed as substrate phosphorylation using fluorescence-labelled peptides as substrate at 8 uM after 90 mins by microfluidic peptide phosphorylation assay
[4] = target: T2, Serine/threonine-protein kinase D3 (Homo sapiens) (UniProt O94806); settings: 0.1 uM
T2 sequence (whole entry): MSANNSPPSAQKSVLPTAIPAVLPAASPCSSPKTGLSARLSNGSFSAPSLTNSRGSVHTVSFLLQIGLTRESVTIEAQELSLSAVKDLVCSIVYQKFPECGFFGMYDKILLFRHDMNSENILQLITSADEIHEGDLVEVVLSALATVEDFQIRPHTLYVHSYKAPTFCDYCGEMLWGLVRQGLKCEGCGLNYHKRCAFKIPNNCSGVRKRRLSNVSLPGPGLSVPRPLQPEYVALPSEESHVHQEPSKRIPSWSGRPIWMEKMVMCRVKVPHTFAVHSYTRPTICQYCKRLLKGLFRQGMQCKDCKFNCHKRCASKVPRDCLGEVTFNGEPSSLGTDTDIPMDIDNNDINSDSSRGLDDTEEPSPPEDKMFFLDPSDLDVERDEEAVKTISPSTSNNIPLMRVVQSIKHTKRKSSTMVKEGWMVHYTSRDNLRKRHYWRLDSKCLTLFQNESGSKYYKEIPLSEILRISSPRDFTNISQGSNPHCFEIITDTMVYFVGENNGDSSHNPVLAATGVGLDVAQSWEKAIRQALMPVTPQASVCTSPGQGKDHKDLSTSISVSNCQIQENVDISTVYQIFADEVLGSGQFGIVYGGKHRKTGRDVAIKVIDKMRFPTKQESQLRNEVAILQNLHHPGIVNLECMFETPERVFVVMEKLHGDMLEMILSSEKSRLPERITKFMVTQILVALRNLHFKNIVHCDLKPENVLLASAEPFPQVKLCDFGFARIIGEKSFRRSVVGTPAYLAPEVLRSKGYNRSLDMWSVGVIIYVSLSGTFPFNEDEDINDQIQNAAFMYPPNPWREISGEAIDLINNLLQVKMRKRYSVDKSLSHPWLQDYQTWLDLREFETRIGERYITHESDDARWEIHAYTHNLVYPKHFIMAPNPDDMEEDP
Description: Inhibition of human full length PKD3 expressed in baculovirus assessed as substrate phosphorylation using fluorescence-labelled peptides as substrate at 0.1 uM after 90 mins by microfluidic peptide phosphorylation assay

[5] = target: T3, Serine/threonine-protein kinase Sgk2 (Homo sapiens) (UniProt Q9HBY8); test: Inhibition of human full length SGK2 expressed in baculovirus assessed as substrate phosphorylation using fluorescence-labelled peptides as substrate at 0.1 uM after 90 mins by microfluidic peptide phosphorylation assay
T3 sequence (whole entry): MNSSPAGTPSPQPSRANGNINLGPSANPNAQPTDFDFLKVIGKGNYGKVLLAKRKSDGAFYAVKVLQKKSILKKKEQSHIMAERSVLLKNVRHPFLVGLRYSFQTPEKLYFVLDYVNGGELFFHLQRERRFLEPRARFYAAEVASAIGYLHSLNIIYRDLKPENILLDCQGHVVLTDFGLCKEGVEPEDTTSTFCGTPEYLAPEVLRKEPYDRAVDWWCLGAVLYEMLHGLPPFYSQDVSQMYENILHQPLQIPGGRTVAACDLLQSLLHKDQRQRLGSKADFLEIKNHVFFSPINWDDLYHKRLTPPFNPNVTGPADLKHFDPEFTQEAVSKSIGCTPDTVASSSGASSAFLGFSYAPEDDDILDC

Q: With `Clc1ccc(C2(c3ccc(-c4ncnc5[nH]cnc45)cc3)CCNCC2)cc1` as the compound, how does the inhibition [1] read?
A: The inhibition was 8%.

Q: For `NCCc1ccc(-c2ncnc3[nH]cnc23)cc1`, which inhibition [2] is on record?
A: The inhibition was 89%.

Q: `NCC1CCN(c2ncnc3[nH]ccc23)CC1` was tested. Which inhibition [3] did it give?
A: The inhibition was 12.5%.

Q: What does the source list for `C[C@H](CN(C)C)Oc1nc(Nc2cc3cccc(Cl)c3cn2)cnc1C#N`?
A: inhibition [4]: 0%; inhibition [5]: 5.5%
